Results published in patent US20250313528A1, “NOVEL COMPOUND AND PHARMACEUTICAL COMPOSITION FOR PREVENTING OR TREATING PULMONARY FIBROSIS COMPRISING SAME AS ACTIVE INGREDIENT” (GIL MEDICAL CENTER, priority 2022, published 2025).

What was measured:
FN, COL1A1, and α-SMA = experiment: qRT-PCR of fibrosis-related genes in TGF-β1-induced DHLF-IPF cells; assay type: cell-based, human; details: 10 μM pretreatment 1 hour, TGF-β1 1 ng/ml 48 hours, FIG. 4c/4d
Description: MRC-5 and DHLF-IPF cells were each cultured in growth medium, and the medium was removed. […] The medium was then removed, and the cells were washed once with PBS. Intracellular total RNA was extracted from the cultured cells using TRIzol reagent (TaKaRa Bio Inc., Japan) for gene expression analysis. 1 mL of TRIzol reagent was added to lyse the cells and denature the tissue. The lysate was transferred to each 1.5 mL tube, and 200 μL of chloroform was added thereto, followed by vortexing for 20 seconds to ensure complete mixing. After incubating at room temperature for 15 minutes, the mixture was centrifuged at 14,000 rpm for 20 minutes to obtain the supernatant. After adding an equal volume of isopropyl alcohol, the tubes were inverted and incubated at room temperature for 10 minutes. The sample was centrifuged at 14,000 rpm for 15 minutes to obtain an RNA pellet, which was washed by centrifugation with 70% ethanol for use on RNA at 14,000 rpm for 5 minutes, and dried for 5 minutes. The dried RNA sample was added with 20 μL of distilled water treated with 0.1% diethyl pyrocarbonate (DEPC) to dissolve the pallet and the resultant was used as a sample for cDNA synthesis. 1 μL of the same was used to measure the RNA concentration and purity at O.D. 260/280 nm using a Nanodrop.
Single-stranded cDNA synthesis was performed by mixing 1 μg of the extracted total RNA with 1 μL of oligo-d(T) primer ([…]) and 10 mM dNTP (TaKaRa Bio Inc., Japan), reacting at 65° C. for 5 minutes, followed by rapid cooling. To this template, 4 μL of 5×RT buffer, 0.5 μL of RNA inhibitor, and 100 units of RTase (TaKaRa Bio Inc., Japan) were added, and the total volume was adjusted to 20 μL using DEPC-treated distilled water. […]
Each gene expression level was measured using real-time PCR. […] The specificity of the amplified product was confirmed through melting curve analysis, and the target genes were quantified and compared using GAPDH as a control gene.

DHLF-IPF cells = experiment: Transwell migration assay, DHLF-IPF; assay type: cell-based, human; details: inherent high migration, 24 hours, FIG. 5
Description: In accordance with the characteristics of myofibroblasts, in which the increased expression of proteins related to fibrogenesis leads to an increase of cell migration and invasion, migration and wound healing assays were conducted to examine the effects of the final selected Compound 1 and Compound 2 on cell migration using normal and diseased fibroblasts.
A 24-well culture plate was prepared with 500 μL of medium including FBS, and an 8 μm pore size insert was placed on top. Inside the insert, 300 μL of medium without FBS was added, and MRC-5 and DHLF-IPF cells were seeded at a density of 1×10^5 cells. […] After incubation, the medium inside the 8 μm pore polycarbonate membrane insert was carefully removed, washed with DPBS, and fixed in methanol for 5 minutes. The cells were then stained with Mayer's Haematoxylin for 8 minutes after washing twice with triple-distilled water. The stained cells were washed with DPBS, gently wiped with a cotton swab inside the insert, and the membrane was cut out and mounted on a slide. The migrated cells were counted under a microscope at 200× magnification.

[1] = test system: bleomycin (BLM)-induced pulmonary fibrosis animal models; experiment: Body weight and lung weight in bleomycin-induced pulmonary fibrosis animal model; assay type: in vivo, C57BL/6N mice; details: BLM mice; for body weight gain during the experimental period: three times a week for three weeks; for lung weight: end of the experiment, vs normal group and BLM group
Description: The inhibitory effects of the finally selected Compound 1 and Compound 2 on pulmonary fibrosis were examined in bleomycin (BLM)-induced pulmonary fibrosis animal models.
(§1) Specifically, 7-week-old C57BL/6N mice were exposed to BLM (3-5 units/kg) via the airway. The compounds were administered orally at doses of 200 μg/kg and 500 μg/kg for Compound 1, and 100 μg/kg and 200 μg/kg for Compound 2, three times a week for three weeks starting the day after BLM exposure. Body weight gain was periodically measured during the experimental period, and lung weight was measured at the end of the experiment.

[2] = test system: bleomycin (BLM)-induced pulmonary fibrosis animal models; experiment: H&E and Masson-trichrome histological evaluation of lung, BLM model; assay type: in vivo, C57BL/6N mice; details: BLM mice; for degree of fibrosis in the lung tissue: compared to the BLM group; for inflammation in lung tissue (H&E): both doses (Compound 1 200 and 500 μg/kg; Compound 2 100 and 200 μg/kg)
Description: as §1
To observe changes in lung tissue, Hematoxylin and Eosin (H&E) staining and Masson-trichrome staining were performed on lung tissue samples to assess the degree of inflammation and fibrosis.
Specifically, the excised lung tissue was embedded in paraffin and sectioned into 4 μm slices using a microtome. These tissue sections were used for H&E, MT stain, and Immunohistochemistry (IHC). Each experiment was conducted by deparaffinizing and rehydrating the sections using xylene and ethanol. For IHC, the LSAB2 system HRP (DAKO, Carpinteria, CA, USA) kit was used. Antibody retrieval was performed in 0.1 mM citric acid (pH 6), and the experiment was conducted according to the provided instructions. The sections were blocked with blocking buffer at room temperature for 1 hour, then incubated overnight at 4° C. with primary antibodies (fibronectin, collagen 1, α-SMA). After blocking with secondary antibodies at room temperature for 1 hour, the Streptavidin-HRP system was used for 10 minutes, followed by exposure to DAB solution, hematoxylin staining, dehydration, clearing, and mounting with Canada balsam. The stained slides were examined under an optical microscope (BK51, Olympus, Japan). The staining results were quantified using the Image J program.

[3] = test system: FN, COL1A1, α-SMA, TGF-β, and CTGF; experiment: qRT-PCR of fibrosis-related genes in lung tissue, BLM model; assay type: in vivo, C57BL/6N mice; details: BLM mice, compared to the BLM group
Description: as §1
Specifically, to extract RNA from lung tissue, approximately 100 mg of pulverized lung tissue was dispensed into 1.5 mL tubes, and total RNA was extracted using TRIzol reagent (TakaRa Bio Inc., Japan). After adding 1 mL of TRIzol reagent to denature the tissue, the samples were transferred to 1.5 ml tubes, and 200 μl of chloroform was added, followed by vortexing for 20 seconds to mix thoroughly. After reacting at room temperature for 15 minutes, the samples were centrifuged at 14,000 rpm for 20 minutes to obtain the supernatant. An equal volume of isopropyl alcohol was added, inverted, and allowed to stand at room temperature for 10 minutes. The samples were centrifuged at 14,000 rpm for 15 minutes to obtain RNA pellets, washed with 70% ethanol at 14,000 rpm for 5 minutes, and dried for 5 minutes. […] The RNA concentration and purity were measured at OD 260/280 nm using a Nanodrop.

Row | SMILES | gene expression levels of FN, COL1A1, and α-SMA (FN, COL1A1, and α-SMA) | cell migration (transwell) (DHLF-IPF cells) | body weight gain during the experimental period ([1]; 200 μg/kg orally) | body weight gain during the experimental period ([1]; 500 μg/kg orally) | degree of fibrosis in the lung tissue ([2]; 200 μg/kg) | degree of fibrosis in the lung tissue ([2]; 500 μg/kg) | inflammation in lung tissue (H&E) [2] | expression of five genes (FN, COL1A1, α-SMA, TGF-β, and CTGF) in lung tissue [3] | lung weight ([1]; 100 μg/kg orally) | body weight gain during the experimental period ([1]; 100 μg/kg orally) | lung weight ([1]; 200 μg/kg orally) | degree of fibrosis in the lung tissue ([2]; 100 μg/kg)
1 | CCOC(=O)C(CSC(=S)NCCCC[S+](C)[O-])NC(C)=O (stereo not drawn) [Compound 1] | significantly reducing the expression levels compared to sulforaphane | significantly inhibited in a dose-dependent manner | steady increase | initially decreased and then gradually increased | significantly reduced | significantly reduced | significant reduction in inflammation regardless of concentration | significant reduction | – | – | – | –
2 | C=CCOC(=O)C(CSC(=S)NCCCC[S+](C)[O-])NC(C)=O (stereo not drawn) [Compound 2] | significantly reducing the expression levels compared to sulforaphane | significantly inhibited in a dose-dependent manner | steady increase in body weight, approaching levels similar to the normal group | – | significantly reduced | – | significant reduction in inflammation at both concentrations | significant reduction | similarly lower levels | steady increase in body weight, approaching levels similar to the normal group | similarly lower levels | significantly reduced
